BigSolDB 2.1

COc1ccc(-n2nc(C(N)=O)c3c2C(=O)N(c2ccc(N4CCCCC4=O)cc2)CC3)cc1
solubility (mole fraction)
Conditions	288.15 K	293.15 K	298.15 K	303.15 K	308.15 K	313.15 K	318.15 K	323.15 K	328.15 K
in acetone	0.00024	0.000276	0.00032	0.000377	0.000436	0.00051	0.000584	0.000669	0.000754
in ethanol	0.000112	0.000144	0.00018	0.00022	0.000268	0.00033	0.000402	0.000474	0.000572
in isopropanol	6.12e-05	7.67e-05	9.95e-05	0.000133	0.000167	0.000214	0.000271	0.00033	0.000404
in methanol	0.000327	0.000416	0.00053	0.000669	0.000842	0.00104	0.00128	0.00156	0.00188
in water	9.68e-06	1.13e-05	1.39e-05	1.67e-05	1.95e-05	2.31e-05	2.74e-05	3.19e-05	3.72e-05
